Results: patent US20180206498A1, “SUBSTITUTED HETEROARYL CARBOXYLIC ACID HYDRAZIDES OR SALTS THEREOF AND USE THEREOF TO INCREASE STRESS TOLERANCE IN PLANTS” (Bayer CropScience Aktiengesellschaft, priority 2015, published 2018)

test system: Brassica napus; assay: Drought stress in vivo analysis Part B, appearance vs stressed control plants in categories; parameters: key: 0: no positive effect; +: slight positive effect; ++: clear positive effect; +++: strong positive effect; settings: spray 25 g/ha
Description: (§1) Seeds of monocotyledonous and dicotyledonous crop plants were sown in sandy loam in plastic pots, covered with soil or sand and cultivated in a greenhouse under good growth conditions. The test plants are treated at the early leaf stage (BBCH10-BBCH13). To assure uniform water supply before commencement of stress, the potted plants were supplied with water by dam irrigation prior to substance application. The inventive compounds were first formulated as wettable powders (WP) or dissolved in a solvent mixture. The further dilution was effected with water supplemented with 0.2% wetting agent (e.g. agrotin). The finished spray liquor was sprayed onto the green parts of the plant at an equivalent water application rate of 600 I/ha. Substance application was followed immediately by stress treatment of the plants. Drought Stress was Induced by Gradual Drying Out Under the Following Conditions: “Day”: 14 hours with illumination at […]-30° C. “Night”: 10 hours without illumination at 18-20° C. The duration of the respective stress phases was guided mainly by the condition of the stressed control plants. It was ended (by re-irrigating and transfer to a greenhouse with good growth conditions) as soon as irreversible damage was observed on the stressed control plants. The end of the stress phase was followed by an about 4-7-day recovery phase, during which the plants were once again kept under good growth conditions in a greenhouse. The duration of the recovery phase was guided mainly by when the trial plants had attained a state which enabled visual scoring of potential effects, and was therefore variable. Once this juncture had been reached, the appearance of the plants treated with test substances was recorded in comparison to the stressed control plants by the following categories: [table] In order to rule out any influence on the effects observed by any fungicidal or insecticidal action of the test compounds, it was additionally ensured that the tests proceeded without fungal infection or insect infestation. The values reported in tables B-1 and […] below are mean values of the results from at least three repeats. Effects of selected compounds of the general formula (I) under drought stress according to the following tables B-1 and B-2: BRSNS=Brassica napus ZEAMX=Zea mays TRZAS=Triticum aestivum

Compound | Effect (BRSNS)
CN(C)N(Cc1ccc(Cl)cc1)C(=O)c1cnsn1 [Compound H1-3] | +
CN(C)N(Cc1cccc(Cl)c1)C(=O)c1snc(N)c1Cl [Compound G1-2] | +
Cc1nc(-c2cccnc2)sc1C(=O)N(Cc1ccccn1)N1CCCC1 [Compound D2-21] | +
CN(C)N(Cc1ccc(Cl)nc1)C(=O)c1ccns1 [Compound G8-94] | +
O=C(c1cnsn1)N(Cc1ccccc1F)N1CCCC1 [Compound H2-11] | +
CN(C)N(Cc1cccc(Cl)c1Cl)C(=O)c1sc(Cl)nc1Cl [Compound D6-4] | +
CN(C)N(Cc1ccccc1Cl)C(=O)c1sc(Cl)nc1Cl [Compound D6-1] | +
CN(C)N(Cc1ccccn1)C(=O)c1cnsn1 [Compound H1-21] | +
CN(C)N(Cc1ccccc1F)C(=O)c1ccns1 [Compound G8-11] | +

same assay, conditions: spray 250 g/ha

Compound | Effect (BRSNS)
Cc1nnsc1C(=O)N(Cc1cccc(Cl)c1Cl)N(C)C [Compound F1-4] | +
CN(C)N(Cc1ccccc1F)C(=O)c1sc(Cl)nc1Cl [Compound D6-11] | +
O=C(c1ccns1)N(Cc1cccc(Cl)c1Cl)N1CCCC1 [Compound G9-4] | ++
CN(C)N(Cc1cccc(Cl)c1Cl)C(=O)c1cc(OCc2ccccc2)ns1 [Compound G10-4] | +
CN(C)N(Cc1ccc(Cl)nc1)C(=O)c1cc(OCc2ccccc2)ns1 [Compound G10-94] | ++
CN(C)N(Cc1ccccc1F)C(=O)c1cnsn1 [Compound H1-11] | +
Cc1c(OCc2ccccc2)nsc1C(=O)N(Cc1ccc(Cl)nc1)N(C)C [Compound G11-94] | +
CN(C)N(Cc1ccccc1C#N)C(=O)c1sc(Cl)nc1Cl [Compound D6-61] | +
O=C(c1cnsn1)N(Cc1ncc(C(F)(F)F)cc1Cl)N1CCCC1 [Compound H2-36] | ++
CC(C)c1nnsc1C(=O)N(Cc1cccc(Cl)c1Cl)N(C)C [Compound F2-4] | +
Cn1cc(C(=O)N(Cc2ccccc2Cl)N2CCCC2)c(C(F)F)n1 [Compound A20-1] | +
CN(C)N(Cc1cccc(Cl)c1Cl)C(=O)c1snc(Cl)c1Cl [Compound E1-4] | +
CN(C(=O)OC(C)(C)C)N(Cc1ccccc1Cl)C(=O)c1c(C(F)F)nn(C)c1F [Compound A13-1] | ++
CN(C)N(Cc1nccc(Cl)c1Cl)C(=O)c1ccsc1C(F)F [Compound B3-40] | +
Cc1nnsc1C(=O)N(Cc1ccc(Cl)nc1)N(C)C [Compound F1-94] | +
CC(C)c1nnsc1C(=O)N(Cc1nccc(Cl)c1Cl)N(C)C [Compound F2-40] | +
CCN(CC)N(Cc1ccccc1C#N)C(=O)c1snc(Cl)c1Cl [Compound E2-61] | +

test system: Triticum aestivum; assay: as above; parameters: key: 0: no positive effect; +: slight positive effect; ++: clear positive effect; +++: strong positive effect; settings: spray 25 g/ha
Description: as §1

Compound | Effect (TRZAS)
CN(C)N(Cc1ccc(Cl)cc1)C(=O)c1cnsn1 [Compound H1-3] | +
CN(C)N(Cc1ccccc1F)C(=O)c1sc(Cl)nc1Cl [Compound D6-11] | +
CN(C)N(Cc1ccccc1Cl)C(=O)c1cn(C)nc1C(F)F [Compound A8-1] | +
O=C(c1ccns1)N(Cc1cccc(Cl)c1Cl)N1CCCC1 [Compound G9-4] | ++
CN(C)N(Cc1ccc(Cl)nc1)C(=O)c1cc(OCc2ccccc2)ns1 [Compound G10-94] | +
Cn1nc(C(F)F)c(C(=O)N(Cc2ccccc2C#N)N2CCCC2)c1Cl [Compound A18-61] | +
CN(C(=O)OC(C)(C)C)N(CCc1ccc(Cl)cc1Cl)C(=O)c1c(C(F)F)nn(C)c1Cl [Compound A14-615] | +
CN(C)N(Cc1ccc(Cl)nc1)C(=O)c1ccns1 [Compound G8-94] | ++
Cc1nc(-c2cccnc2)sc1C(=O)N(Cc1ccccc1C#N)N(C)C [Compound D1-61] | +
CCc1sccc1C(=O)N(Cc1ccccn1)N(C)C [Compound B4-21] | +
CN(C)N(Cc1ccccn1)C(=O)c1cc(OCc2ccccc2)ns1 [Compound G10-21] | +
CN(C)N(Cc1cccc(Cl)c1Cl)C(=O)c1sc(Cl)nc1Cl [Compound D6-4] | +
CN(C(=O)OC(C)(C)C)N(Cc1ccccc1Cl)C(=O)c1c(C(F)F)nn(C)c1Cl [Compound A14-1] | +
Cc1nc(-c2cccnc2)sc1C(=O)N(Cc1ccccc1C#N)N1CCCC1 [Compound D2-61] | +
CN(C)N(Cc1ccccc1Cl)C(=O)c1snc(N)c1Cl [Compound G1-1] | +
CN(C)N(Cc1ccccc1C#N)C(=O)c1sc(Cl)nc1Cl [Compound D6-61] | +
CN(C(=O)OC(C)(C)C)N(Cc1ccc(Cl)cc1Cl)C(=O)c1c(C(F)F)nn(C)c1F [Compound A13-5] | +
CCc1sccc1C(=O)N(Cc1ccccc1C#N)N(C)C [Compound B4-61] | +
CN(C)N(Cc1ccc(Cl)nc1)C(=O)c1snc(Cl)c1Cl [Compound E1-94] | +
O=C(c1cnsn1)N(Cc1ccc(F)cc1F)N1CCCC1 [Compound H2-15] | ++
CC(C)c1nnsc1C(=O)N(Cc1ccc(Cl)nc1)N(C)C [Compound F2-94] | +
CCc1sccc1C(=O)N(Cc1ccccc1Cl)N(C)C [Compound B4-1] | +
N#Cc1ccccc1CN(C(=O)c1snc(Cl)c1Cl)N1CCCC1 [Compound E5-61] | +
CN(C)N(Cc1ccccn1)C(=O)c1ccsc1C(F)F [Compound B3-21] | +
CN(C)N(Cc1cccc(Cl)c1Cl)C(=O)c1cn(C)nc1C(F)(F)F [Compound A4-4, N-(2,3-dichlorobenzyl)-N′,N′, 1-trimethyl-3-(trifluoromethyl)-1H-pyrazole-4-carbohydrazide] | +
CN(C)N(Cc1ccccc1C#N)C(=O)c1cn(C)nc1C(F)(F)F [Compound A4-61] | +
CC(Cc1ccccc1)N(C(=O)c1snc(Cl)c1Cl)N(C)C (stereo not drawn) [Compound E1-351] | +

same assay, conditions: spray 250 g/ha

Compound | Effect (TRZAS)
CN(C)N(Cc1ccccc1C#N)C(=O)c1snc(Cl)c1Cl [Compound E1-61] | +
CN(C)N(Cc1ncc(C(F)(F)F)cc1Cl)C(=O)c1ccns1 [Compound G8-36] | ++
Cc1nnsc1C(=O)N(Cc1cccc(Cl)c1Cl)N(C)C [Compound F1-4] | +
O=C(c1cnsn1)N(Cc1ccccc1Cl)N1CCCC1 [Compound H2-1] | +
CCn1nc(C(F)F)c(C(=O)N(Cc2ccccc2C#N)N(C)C)c1F [Compound A7-61] | ++
Cn1cc(C(=O)N(Cc2ccccc2C#N)N2CCCC2)c(C(F)F)n1 [Compound A20-61] | +
O=C(c1cnsn1)N(Cc1ccccc1F)N1CCCC1 [Compound H2-11] | +
CN(C)N(Cc1ccccc1F)C(=O)c1cnsn1 [Compound H1-11] | +
Cc1c(OCc2ccccc2)nsc1C(=O)N(Cc1ccc(Cl)nc1)N(C)C [Compound G11-94] | +
CN(C)N(Cc1ncc(C(F)(F)F)cc1Cl)C(=O)c1cc(OCc2ccccc2)ns1 [Compound G10-36] | ++
CN(C)N(Cc1ncc(C(F)(F)F)cc1Cl)C(=O)c1sc(Cl)nc1Cl [Compound D6-36] | +
O=C(c1cnsn1)N(Cc1ccc(Cl)cc1)N1CCCC1 [Compound H2-3] | +
Cc1nnsc1C(=O)N(Cc1ccccc1C#N)N(C)C [Compound F1-61] | +
Cc1c(OCc2ccccc2)nsc1C(=O)N(Cc1ncc(C(F)(F)F)cc1Cl)N(C)C [Compound G11-36] | ++
O=C(c1ccns1)N(Cc1ccc(Cl)nc1)N1CCCC1 [Compound G9-94] | ++
CN(C)N(Cc1ccc(Cl)nc1)C(=O)c1sc(Cl)nc1Cl [Compound D6-94] | +
CN(C)N(Cc1ccc(Cl)cc1)C(=O)c1snc(Cl)c1Cl [Compound E1-3] | +
CN(C)N(Cc1ccccc1F)C(=O)c1cc(OCc2ccccc2)ns1 [Compound G10-11] | +
CCn1nc(C(F)F)c(C(=O)N(Cc2cccnc2C#N)N2CCCC2)c1F [Compound A24-679] | +
Cc1occc1C(=O)N(Cc1ccccc1C#N)N(C)C [Compound C3-61] | +
CN(C)N(Cc1ccccc1C#N)C(=O)c1ccsc1C(F)F [Compound B3-61, N-(2-Cyanobenzyl)-2-(difluoromethyl)-N′,N′-dimethylthiophene-3-carbohydrazide] | +
N#Cc1ccccc1CN(C(=O)c1cnsn1)N1CCCC1 [Compound H2-61] | +
CN(C)N(Cc1ccccn1)C(=O)c1sc(Cl)nc1Cl [Compound D6-21] | +
CN(C)N(Cc1ccccc1C#N)C(=O)c1cc(OCc2ccccc2)ns1 [Compound G10-61] | +
CC(C)c1nnsc1C(=O)N(Cc1ccccc1Cl)N(C)C [Compound F2-1, N-(2-Chlorobenzyl)-4-isopropyl-N′,N′-dimethyl-1,2,3-thiadiazole-5-carbohydrazide] | +
Cc1nc(-c2cccnc2)sc1C(=O)N(Cc1cccc(Cl)c1Cl)N(C)C [Compound D1-4] | +
CN(C)N(Cc1ccccc1Cl)C(=O)c1snc(Cl)c1Cl [Compound E1-1] | +
O=C(c1ccns1)N(Cc1ccc(F)cc1F)N1CCCC1 [Compound G9-15] | +
